{"source": "patent US20230241061A1", "about": "“METHODS AND PHARMACEUTICAL COMPOSITIONS FOR THE TREATMENT OF FGFR3-RELATED COGNITIVE DEFICIT” (INSERM (INSTITUT NATIONAL DE LA SANTÉ ET DE LA RECHERCHE …, priority 2020, published 2023)", "key": {"Fgfr3^Asn534Lys/+ mice [1]": {"system": "Fgfr3^Asn534Lys/+ mice", "assay": "Novel object location (NOL) in HCH mouse model", "assay_type": "in vivo", "details": "4 months old male Fgfr3^Asn534Lys/+ mice, daily subcutaneous 2 mg/kg for six days, p= 0.9538 vs control littermates, FIG. 3A", "description": "(§1) FIG. 3: Learning impairment is reverse by FGFR3 tyrosine kinase inhibitor daily subcutaneous injection of BGJ398. A. Novel object location (NOL) was performed in 4 months old male animals. Discrimination index was measured 24 h after training phase to assess memory performance of Fgfr3Asn534Lys/+ and their control littermates. B. Novel object recognition (NOR) was performed in 4 months old male animals. Discrimination index was measured 24 h after training phase to assess memory performance of Fgfr3Asn534Lys/+ + BGJ398, Fgfr3Asn534Lys/+ and their control littermates. NOR and NOL were performed on two independent groups of Fgfr3Asn534Lys/+ (n=12) Fgfr3Asn534Lys/+ + BGJ398 (n=14) and their controls (n=14).\n(§2) BGJ398 was purchased from LC Laboratories, Woburn, MA, USA. […]\nFor the novel object location task, all procedures were identical to the novel object recognition task except that during the testing phase, rather than presenting a novel object, mice encountered both familiar objects, with one object located in a different place in the arena. The time and frequency of exploration of the novel/relocated object is measured as an index of memory. Behavior was scored on videos by two observers blind to treatment and the total exploration time of the objects was quantified in the testing phases."}, "FGFR3 [2]": {"molecular_target": "T1, FGFR3 (Mus musculus, UniProt Q61851, A385E)", "T1 construct": "from tissue; host or cells: brain (hippocampus) of Fgfr3^A385E/+ knock-in mice", "T1 sequence (Q61851 21-801 A385E)": "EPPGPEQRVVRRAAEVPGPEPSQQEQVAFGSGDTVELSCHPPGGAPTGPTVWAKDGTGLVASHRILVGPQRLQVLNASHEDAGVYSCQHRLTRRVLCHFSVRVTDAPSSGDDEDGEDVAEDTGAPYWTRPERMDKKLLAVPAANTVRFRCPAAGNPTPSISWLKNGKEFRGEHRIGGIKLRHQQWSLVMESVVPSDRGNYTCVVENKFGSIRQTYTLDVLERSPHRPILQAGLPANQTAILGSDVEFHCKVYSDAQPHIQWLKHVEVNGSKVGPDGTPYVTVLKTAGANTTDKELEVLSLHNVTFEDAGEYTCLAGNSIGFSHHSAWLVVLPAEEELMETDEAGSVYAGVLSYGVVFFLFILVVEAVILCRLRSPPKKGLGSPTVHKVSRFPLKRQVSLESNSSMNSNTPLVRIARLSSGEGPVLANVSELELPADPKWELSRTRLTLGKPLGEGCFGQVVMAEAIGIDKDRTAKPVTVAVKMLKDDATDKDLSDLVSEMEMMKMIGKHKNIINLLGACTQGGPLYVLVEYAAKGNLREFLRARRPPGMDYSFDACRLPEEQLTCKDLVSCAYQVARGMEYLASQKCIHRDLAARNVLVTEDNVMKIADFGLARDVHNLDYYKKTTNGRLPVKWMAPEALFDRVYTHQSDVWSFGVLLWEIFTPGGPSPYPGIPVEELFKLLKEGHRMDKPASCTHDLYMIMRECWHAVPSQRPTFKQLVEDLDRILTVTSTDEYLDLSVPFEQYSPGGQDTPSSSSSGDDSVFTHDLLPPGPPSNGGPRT", "assay": "FGFR3 overactivation in the brain of CAN mouse model", "assay_type": "in vivo", "details": "Fgfr3^A385E/+ mice"}, "[3]": {"system": "FGFR3 related Achondroplasia mouse model", "details": "subcutaneous injections, Komla-Ebri et al. 2016; cited from earlier work"}, "FGFR3 [4]": {"molecular_target": "FGFR3 (Homo sapiens, UniProt P22607)", "sequence (P22607 23-806, species assumed)": "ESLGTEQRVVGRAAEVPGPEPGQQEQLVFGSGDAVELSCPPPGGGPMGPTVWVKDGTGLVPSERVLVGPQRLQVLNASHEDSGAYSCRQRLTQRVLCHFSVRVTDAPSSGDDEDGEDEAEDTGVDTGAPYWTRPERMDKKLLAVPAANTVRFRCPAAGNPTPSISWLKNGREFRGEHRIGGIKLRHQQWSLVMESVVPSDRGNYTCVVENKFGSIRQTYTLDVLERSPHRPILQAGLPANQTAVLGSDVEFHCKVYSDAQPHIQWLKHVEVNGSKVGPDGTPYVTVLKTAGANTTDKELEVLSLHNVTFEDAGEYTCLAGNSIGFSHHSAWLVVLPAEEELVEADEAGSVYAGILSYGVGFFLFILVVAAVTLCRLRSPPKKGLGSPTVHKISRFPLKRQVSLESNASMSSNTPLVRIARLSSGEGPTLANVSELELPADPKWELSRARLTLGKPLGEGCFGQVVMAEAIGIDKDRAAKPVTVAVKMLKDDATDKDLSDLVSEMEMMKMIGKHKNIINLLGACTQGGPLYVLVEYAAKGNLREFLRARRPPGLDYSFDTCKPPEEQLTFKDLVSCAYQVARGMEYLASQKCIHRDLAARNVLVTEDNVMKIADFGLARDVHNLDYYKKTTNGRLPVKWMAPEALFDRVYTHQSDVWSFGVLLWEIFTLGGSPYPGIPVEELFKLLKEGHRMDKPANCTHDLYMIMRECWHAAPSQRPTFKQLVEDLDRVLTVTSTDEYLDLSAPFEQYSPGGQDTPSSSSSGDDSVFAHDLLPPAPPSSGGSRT", "details": "reason given for selecting the inhibitor; cited from earlier work"}, "Fgfr3^A385E/+ mice [5]": {"system": "Fgfr3^A385E/+ mice", "assay": "Forced swim test (FST) in CAN mouse model", "assay_type": "in vivo", "details": "4-month-old male Fgfr3^A385E/+ mice, daily intra-cerebro-ventricular injections for 7 days, test 1 hour after last injection, FIG. 2D", "description": "(§3) A. Local daily intracerebroventricular injection with either BGJ398 or vehicle in 4 month-old male animals during 7 days. NOR training session occurred 1 hour after last injection B. NOR performed on groups injected with vehicle or BGJ398. Injection and NOR were performed on two independent groups with the three conditions each (Fgfr3^+/+ + vehicle, n=15; Fgfr3^A385E/+ + vehicle, n=14; Fgfr3^A385E/+ + BGJ398, n=14. C. Local daily intracerebroventricular injection with either BGJ398 or vehicle in 4 month-old male animals during 7 days. One FST testing session occurring 1 hour after last injection. Immobility duration was assessed during testing. D. FST performed on groups injected with vehicle or BGJ398. Injection and FST were performed on two independent groups with the three conditions each (Fgfr3^+/+ + vehicle, n=15; Fgfr3^A385E/+ + vehicle, n=14; Fgfr3^A385E/+ + BGJ398, n=14). *P<0.05 **P<0.01, ***P<0.001.NS Not significant by ANOVA with Tukey’s multiple comparisons post-test and Student’s unpaired t test.\nas §2\nThis test is based on a similar observation than the TST. […] Mice were tested for 5 min, and the time spent immobile (behavioral despair) was quantified."}, "Fgfr3^A385E/+ mice [6]": {"system": "Fgfr3^A385E/+ mice", "assay": "Novel object recognition (NOR) in CAN mouse model", "assay_type": "in vivo", "details": "4-month-old male Fgfr3^A385E/+ mice, daily intra-cerebro-ventricular injections for 7 days, compared to control littermates, FIG. 2B", "description": "as §3, with “test. […]” for “test.”\n(§4) We used a modified version of the NOR task as described in Glatigny et al., 2019. […] The testing room was lit with two 60-W light bulbs and behavior sessions were recorded with a camera above the testing arena (grey plastic box (60 × 40 × 32 cm)). […] The objects elicited equal levels of exploration as determined in pilot experiments and training phase. […]"}, "Fgfr3^Asn534Lys/+ mice [7]": {"system": "Fgfr3^Asn534Lys/+ mice", "assay": "Novel object recognition (NOR) in HCH mouse model", "assay_type": "in vivo", "details": "4 months old male Fgfr3^Asn534Lys/+ mice, daily subcutaneous 2 mg/kg for six days, p= 0.8697 vs control littermates, FIG. 3B", "description": "as §1, with “NOR and NOL were performed on two independent groups of Fgfr3Asn534Lys/+ (n=12) Fgfr3Asn534Lys/+ + BGJ398 (n=14) and their controls (n=14).” left out\nas §4\nThe following behaviors were considered as exploration of the objects: sniffing, licking, or touching the object with the nose or with the front legs or directing the nose to the object at a distance ≤ 1 cm. Investigation was not scored if the mouse was on top of the object or completely immobile. The discrimination index was calculated as (time spent exploring the new object - time spent exploring the familiar object) / (total time spent exploring both objects). […]"}}, "note": "Entries after “also recorded” stand apart in the source; their conditions may differ."}
{"smiles": "CCN1CCN(c2ccc(Nc3cc(N(C)C(=O)Nc4c(Cl)c(OC)cc(OC)c4Cl)ncn3)cc2)CC1", "note": "[BGJ398, 3-(2,6-dichloro-3,5-dimethoxyphenyl)-1-[6-[4-(4-ethylpiperazin-1-yl)anilino]pyrimidin-4-yl]-1-methylurea]", "values": [{"measurement": "spatial memory deficit (NOL), exploration of the relocated object", "setting": "Fgfr3^Asn534Lys/+ mice [1]", "result": "sufficient to restore the spatial (NOL)"}, {"measurement": "FGFR3 overactivation in the brain", "setting": "FGFR3 [2]", "result": "inhibited the FGFR3 overactivation in the brain"}, {"measurement": "FGFR3 over-activation", "setting": "[3]", "result": "abolished the FGFR3 over-activation"}, {"measurement": "chondrodysplasia phenotype / skeletal anomalies", "setting": "[3]", "result": "rescued the chondrodysplasia phenotype; also recorded: efficacy of BGJ398 in skeletal anomalies"}, {"measurement": "binding specificity for FGFR3", "setting": "FGFR3 [4]", "result": "highest binding specificity for FGFR3"}, {"measurement": "coping strategy to an inescapable stress in the FST (immobility duration)", "setting": "Fgfr3^A385E/+ mice [5]", "result": "reestablished the coping strategy to an inescapable stress"}, {"measurement": "memory deficits in the NOR paradigm (discrimination index)", "setting": "Fgfr3^A385E/+ mice [6]", "result": "reversed the memory deficits"}, {"measurement": "episodic memory deficit (NOR), exploration of the novel object", "setting": "Fgfr3^Asn534Lys/+ mice [7]", "result": "to the same levels than control littermates"}]}
